In ChEMBL document CHEMBL3244119, “Synthesis and hypoglycemic activity of S-acyl derivatives of 3-mercaptopicolinic acid” (J Med Chem, 1977):

What was measured:
Rattus norvegicus [1] = experiment: Hypoglycemic activity in 48 hrs fasted rat assessed as reduction in glucose level at 300 mg/kg, po measured after 1 hr; format: functional; set-up: scale not given: the % may be the effect or the level left
Rattus norvegicus [2] = experiment: Hypoglycemic activity in 48 hrs fasted rat assessed as reduction in glucose level at 300 mg/kg, po measured after 4 hrs; format: functional; set-up: scale not given: the % may be the effect or the level left
Rattus norvegicus [3] = experiment: Hypoglycemic activity in 48 hrs fasted rat assessed as reduction in glucose level at 125 mg/kg, po measured after 1 hr; format: functional; set-up: scale not given: the % may be the effect or the level left
[4] = Stability of the compound assessed as rate of 3-mercaptopicolinic acid formation at 10 mg at pH 8 by DTNB method; format: physicochemical
[5] = Half life of the compound at pH 8; format: physicochemical
[6] = Stability of the compound assessed as rate of 3-mercaptopicolinic acid formation at 10 mg at pH 6 by DTNB method; format: physicochemical
Rattus norvegicus [7] = experiment: Hypoglycemic activity in 48 hrs fasted rat assessed as reduction in glucose level at 125 mg/kg, po measured after 2 hrs; format: functional; set-up: scale not given: the % may be the effect or the level left
Rattus norvegicus [8] = experiment: Hypoglycemic activity in 48 hrs fasted rat assessed as reduction in glucose level at 300 mg/kg, po measured after 2 hrs; format: functional; set-up: scale not given: the % may be the effect or the level left
[9] = Half life of the compound at pH 6; format: physicochemical
Rattus norvegicus [10] = experiment: Hypoglycemic activity in 48 hrs fasted rat assessed as reduction in glucose level at 125 mg/kg, po measured after 4 hrs; format: functional; set-up: scale not given: the % may be the effect or the level left
[11] = Stability of the compound in 3 N HCl-ethanol […] measured after refluxing for 2.5 hrs by TLC; format: physicochemical; conditions: buffer
[12] = Stability of the compound in 3 N HCl at room temperature after 3.5 hrs by TLC; format: physicochemical; conditions: buffer
Rattus norvegicus [13] = experiment: Hypoglycemic activity in 48 hrs fasted rat assessed as reduction in glucose level at 150 mg/kg, po measured after 1 hr; format: functional; set-up: scale not given: the % may be the effect or the level left
Rattus norvegicus [14] = experiment: Hypoglycemic activity in 48 hrs fasted rat assessed as reduction in glucose level at 150 mg/kg, po measured after 2 hrs; format: functional; set-up: scale not given: the % may be the effect or the level left
Rattus norvegicus [15] = experiment: Hypoglycemic activity in 48 hrs fasted rat assessed as reduction in glucose level at 150 mg/kg, po measured after 4 hrs; format: functional; set-up: scale not given: the % may be the effect or the level left
[16] = Stability of the compound assessed as compound remaining at equilibrium at 10 mg at pH 6 by DTNB method; format: physicochemical
Rattus norvegicus [17] = experiment: Hypoglycemic activity in 48 hrs fasted rat assessed as reduction in glucose level at 250 mg/kg, po measured after 2 hrs; format: functional; set-up: scale not given: the % may be the effect or the level left
Rattus norvegicus [18] = experiment: Hypoglycemic activity in 48 hrs fasted rat assessed as reduction in glucose level at 250 mg/kg, po measured after 1 hr; format: functional; set-up: scale not given: the % may be the effect or the level left
Rattus norvegicus [19] = experiment: Hypoglycemic activity in 48 hrs fasted rat assessed as reduction in glucose level at 250 mg/kg, po measured after 4 hrs; format: functional; set-up: scale not given: the % may be the effect or the level left
Rattus norvegicus [20] = experiment: Hypoglycemic activity in 48 hrs fasted rat assessed as reduction in glucose level at 200 mg/kg, po measured after 2 hrs; format: functional; set-up: scale not given: the % may be the effect or the level left
Rattus norvegicus [21] = experiment: Hypoglycemic activity in 48 hrs fasted rat assessed as reduction in glucose level at 200 mg/kg, po measured after 4 hrs; format: functional; set-up: scale not given: the % may be the effect or the level left
Rattus norvegicus [22] = experiment: Hypoglycemic activity in 48 hrs fasted rat assessed as reduction in glucose level at 200 mg/kg, po measured after 1 hr; format: functional; set-up: scale not given: the % may be the effect or the level left

Row | SMILES | Activity [4] | half-life [5] | Activity [6] | half-life [9] | Activity (Rattus norvegicus [1]) | Activity (Rattus norvegicus [2]) | Activity (Rattus norvegicus [8]) | Activity (Rattus norvegicus [13]) | Activity (Rattus norvegicus [14]) | Activity (Rattus norvegicus [15]) | further results
1 | CC(C)(C)C(=O)Sc1cccnc1C(=O)O | 0.0114 h⁻¹ | 115 h | 0.006 h⁻¹ | 61.1 h | -20% | -70% | -43% |  |  |  | Activity (Rattus norvegicus [3]): 21%; Activity (Rattus norvegicus [7]): 42%; Activity (Rattus norvegicus [10]): 52%
2 | O=C(Sc1cccnc1C(=O)O)c1ccccc1Cl | 0.0255 h⁻¹ | 75.8 h | 0.0091 h⁻¹ | 27.2 h | -35% | -40% | -39% |  |  |  | 
3 | CN(C)c1ccc(C(=O)Sc2cccnc2C(=O)O)cc1 |  |  |  |  |  |  |  | -12% | -2% | -8% | 
4 | O=C(O)c1ncccc1S |  |  |  |  |  |  |  | -32% | -44% | -56% | 
5 | N#Cc1ccc(C(=O)Sc2cccnc2C(=O)O)cc1 |  |  |  |  |  |  |  | -18% | -16% | 0% | 
6 | COC(=O)c1ccc(C(=O)Sc2cccnc2C(=O)O)cc1 |  |  |  |  |  |  |  | -17% | -20% | 1% | 
7 | NS(=O)(=O)c1ccc(C(=O)Sc2cccnc2C(=O)O)cc1 |  |  |  |  |  |  |  | 20% | -16% | 3% | 
8 | NC(=O)c1ccc(C(=O)Sc2cccnc2C(=O)O)cc1 |  |  |  |  |  |  |  | -22% | -6% | -25% | 
9 | CC(=O)Nc1ccc(C(=O)Sc2cccnc2C(=O)O)cc1 |  |  |  |  |  |  |  | -18% | -14% | 7% | 
10 | O=C(Nc1ccc(C(=O)Sc2cccnc2C(=O)O)cc1)c1ccccc1 |  |  |  |  |  |  |  | -20% | -20% | -4% | 
11 | CCC(=O)Sc1cccnc1C(=O)O |  |  |  |  |  |  |  |  |  |  | Activity (Rattus norvegicus [17]): 52%; Activity (Rattus norvegicus [18]): 22%; Activity (Rattus norvegicus [19]): 55%
12 | CCCCCCCCCCC(=O)Sc1cccnc1C(=O)O |  |  |  |  |  |  |  | -14% | 3% | -9% | 
13 | CCCCNC(=O)NS(=O)(=O)c1ccc(C)cc1 [TOLBUTAMIDE] |  |  |  |  |  |  |  |  |  |  | Activity (Rattus norvegicus [20]): 47%; Activity (Rattus norvegicus [21]): 48%; Activity (Rattus norvegicus [22]): 28%

More lines, main results first:

Row | Activity [4] | half-life [5] | Activity [6] | half-life [9] | SMILES | Activity (Rattus norvegicus [1]) | Activity (Rattus norvegicus [2]) | Activity (Rattus norvegicus [8]) | Activity (Rattus norvegicus [13]) | Activity (Rattus norvegicus [14]) | Activity (Rattus norvegicus [15]) | further results
14 | 0.0329 h⁻¹ | 60.1 h | 0.0115 h⁻¹ | 21.1 h | O=C(Sc1cccnc1C(=O)O)c1ccccc1 | -27% | -56% | -42% |  |  |  | Stability [11]: Stable; Stability [12]: Stable
15 | 0.148 h⁻¹ | 14.8 h | 0.0468 h⁻¹ | 4.7 h | O=C(Sc1cccnc1C(=O)O)c1cccc(Cl)c1 | -27% | -42% | -32% |  |  |  | 
16 | 0.0879 h⁻¹ | 26.6 h | 0.0261 h⁻¹ | 7.9 h | O=C(Sc1cccnc1C(=O)O)c1ccc(Cl)cc1 | -43% | -57% | -34% |  |  |  | Activity (Rattus norvegicus [3]): 12%; Activity (Rattus norvegicus [7]): 34%; Activity (Rattus norvegicus [10]): 40%
17 | 0.179 h⁻¹ | 10 h | 0.0695 h⁻¹ | 3.9 h | O=C(Sc1cccnc1C(=O)O)c1cccc(C(F)(F)F)c1 | -35% | 45% | -38% |  |  |  | 
18 | 0.231 h⁻¹ | 10.1 h | 0.0688 h⁻¹ | 3 h | O=C(Sc1cccnc1C(=O)O)c1ccc(C(F)(F)F)cc1 | -26% | -75% | -54% |  |  |  | Activity (Rattus norvegicus [3]): 28%; Activity (Rattus norvegicus [7]): 41%; Activity (Rattus norvegicus [10]): 32%
19 | 0.0583 h⁻¹ | 63.7 h | 0.0109 h⁻¹ | 11.9 h | COc1cccc(C(=O)Sc2cccnc2C(=O)O)c1 | -15% | -30% | -24% |  |  |  | 
20 | 0.0158 h⁻¹ | 182 h | 0.0038 h⁻¹ | 43.9 h | COc1ccc(C(=O)Sc2cccnc2C(=O)O)cc1 | 16% | 19% | -25% |  |  |  | 
21 | 0.0271 h⁻¹ | 80.1 h | 0.0087 h⁻¹ | 25.6 h | Cc1ccc(C(=O)Sc2cccnc2C(=O)O)cc1 | -21% | -4% | -16% |  |  |  | 
22 | 0.0575 h⁻¹ | 111 h | 0.0062 h⁻¹ | 12.1 h | O=C(Sc1cccnc1C(=O)O)c1ccc(F)cc1 | -29% | -44% | -47% |  |  |  | 
23 | 0.513 h⁻¹ | 4.7 h | 0.147 h⁻¹ | 1.4 h | O=C(Sc1cccnc1C(=O)O)c1ccc([N+](=O)[O-])cc1 | 0% | 12% | 0% |  |  |  | Stability [16]: 24.3 mol%
